Data set [1] can be described thus: Inhibition of human recombinant SOS2 catalytic domain/human recombinant GST-KRAS G12C mutant expressed in Escherichia coli assessed as inhibition of interaction.
The nature of data set [2]: In vivo inhibition of ERK phosphorylation in human MIA PaCa-2 cells harbouring KRAS G12C mutant xenografted in athymic nude Foxn1 nu mouse assessed as phosphorylated ERK level at 10 mg/kg, po qd in presence of 50 mg/kg MRTX849 measured after 4 hrs relative to total ERK. The data set is classed as functional.
Data set [3] can be described thus: Free plasma concentration in CD-1 mouse at 100 mg/kg, po measured on 1 hr. In kind it is ADME, organism-based. Particulars: in vivo.
A short description of data set [4]: Inhibition of N-terminal his-tagged human recombinant SOS2/C-terminal Avi-biotinylated-tagged human recombinant KRAS expressed in Escherichia coli assessed as inhibition of GDP exchange rate by TR-FRET assay. For orientation: In TR-FRET formats the signal depends on donor and acceptor labels being close together.
Data set [5] can be described thus: In vivo inhibition of ERK phosphorylation in human MIA PaCa-2 cells harbouring KRAS G12C mutant xenografted in athymic nude Foxn1 nu mouse assessed as phosphorylated ERK level at 10 mg/kg, po qd in presence of 25 mg/kg MRTX849 measured after 4 hrs relative to total ERK. The data set is classed as functional. (Xenograft models place foreign cells or tissue in a host animal.)

Data set [6] is described as follows: In vivo inhibition of ERK phosphorylation in human MIA PaCa-2 cells harbouring KRAS G12C mutant xenografted in athymic nude Foxn1 nu mouse assessed as phosphorylated ERK level at 10 mg/kg, po qd measured after 4 hrs relative to total ERK. The data set is classed as functional.

Usually IC50 stands for the concentration that inhibits the measured activity by half. Broadly, the inhibition in vivo is the share of the control response that was lost under treatment.

With `CNCc1ccccc1-c1csc([C@@H](C)Nc2nc(C)nc3cc(OC)c(OC)cc23)c1` [BAY-293], the IC50 in data set [1] is 21 nM.
As for `Cc1c(C#N)cccc1[C@@H](C)Nc1nnc(C)c2cnc(N3CCOCC3)cc12` [MRTX-0902], the inhibition in vivo at 10 mg/kg in data set [2] worked out at 81%; in data set [5], 66%. Further, the “Cp(f)” value in data set [3] came to 134 nM. Also, the IC50 in data set [4] was more than 10000 nM.
With `C=C(F)C(=O)N1CCN(c2nc(OC[C@@H]3CCCN3C)nc3c2CCN(c2cccc4cccc(Cl)c24)C3)C[C@@H]1CC#N` [ADAGRASIB], the inhibition in vivo at 10 mg/kg in data set [6] is 21%.

For the origin of these results see ChEMBL document CHEMBL5143739, “Design and Discovery of MRTX0902, a Potent, Selective, Brain-Penetrant, and Orally Bioavailable Inhibitor of the SOS1:KRAS Protein-Protein Interaction” (J Med Chem, 2022).
